Each structure is given as a SMILES string.

Data set [1] has as its system Subcutaneous Raji lymphoma xenograft. Nature of the data set: In vivo anti-tumor efficacy study. Also on record: species or system nude mice. To be noted: 10 mg/kg DOX i.v. days 0, 4, 8.
Description: Lymphoma xenograft mouse models were established by subcutaneously injecting 1×10^7 Raji lymphoma cells in a 100 μL of mixture of PBS and Matrigel (1:1 v/v) at the right flank in female nude mice.
Data set [2] in a line: Maximum tolerated dose (MTD) study. Conditions: mice, intravenous.
Data set [3] in a line: Toxicity monitoring in the therapeutic study (body weight, blood cell counts, serum chemistry, heart histology). Format: in vivo, Raji tumor bearing mice. The method, then:
Subcutaneous Raji lymphoma xenograft mouse model was used to evaluate the therapeutic efficacy of different formulations of DOX. When tumor volume reached 150-300 mm^3, mice were intravenously administrated with PBS, DOX.HCl, Doxil®, or DOX-PEG^5k-CA4^αRh4^ε at the dose of 10 mg/kg DOX equivalent (MTD of free DOX) (n=5-8). The treatment was given every four day on days 0, 4 and 8 for total three doses. Tumor sizes were measured with a digital caliper twice per week. Tumor volume was calculated by the formula (L×W^2)/2, where L is the longest, and W is the shortest in tumor diameters (mm). To compare between groups, relative tumor volume (RTV) was calculated at each measurement time point (where RTV equals the tumor volume at given time point divided by the tumor volume prior to initial treatment). For humane reasons, animals were sacrificed when the implanted tumor volume reached 2000 mm^3, which was considered as the end point of survival data. At day 7 after the last dosage, blood samples were obtained from all the mice for the measurement of blood cell counts, hepatic or renal function tests (ALT, AST, and BUN), and serum enzyme markers of cardiotoxicity including creatine kinase (CK) and lactate dehydrogenase (LDH). One mouse from each group was also sacrificed, and its heart was submitted for histopathology evaluation.

Setting [4] is: day 7 after last dosage, free DOX vs untreated mice, nanoformulations vs free DOX (P<0.05).

Take `COc1cccc2c1C(=O)c1c(O)c3c(c(O)c1C2=O)C[C@@](O)(C(=O)CO)C[C@@H]3O[C@H]1C[C@H](N)[C@H](O)[C@H](C)O1.Cl` [free DOX, Doxorubicin hydrochloride]: the median survival time in data set [1] was found to be 32 days. Besides, the “median RTV (relative tumor volume)” value in data set [1] (by day 28) came to 9.9. This molecule also returned a maximal tolerated dose (MTD) in data set [2] of 10 mg/kg. Further, the body weight loss result in data set [3] (10 mg/kg DOX i.v. days 0, 4, 8) was “significantly higher”. In data set [3] (setting [4]), the “serum level of CK” value is reported as “significantly increased” and the “serum level of LDH” value is “significantly increased”. For the same molecule, in data set [3] (day 7 after the last injection, compared to PBS control), the WBC count entry is recorded as “significantly decreased”. In data set [3] (on day 16), the death entry is listed as “one death”.
